Experimental data taken from publication PMC6968511 (Journal of Enzyme Inhibition and Medicinal Chemistry, 2019).

Legend:
[1] = Solubility in water; assay type: physicochemical
[2] = system: H9C2 (normal, rat myocytes); assay: MTT cytotoxicity assay; assay type: cell-based; conditions: tested up to 100 μM (data not shown)
[3] = system: HepG2 (human liver carcinoma); assay: MTT cytotoxicity assay; assay type: cell-based; conditions: tested up to 100 μM (data not shown)
[4] = MTT cytotoxicity assay; assay type: cell-based, human; conditions: human, HCEC (human corneal epithelial) cells
[5] = system: HCEC (human corneal epithelial cell); assay: MTT cytotoxicity assay; assay type: cell-based; conditions: MTT, tested up to 100 μM (data not shown)
[6] = system: HT-29 (human colorectral cancer); assay: MTT cytotoxicity assay; assay type: cell-based; conditions: tested up to 100 μM (data not shown)
[7] = system: hypertensive rabbits; assay: Hypertensive rabbit IOP lowering study; assay type: in vivo; conditions: topical
[8] = one drop (50 μL) of 1% solution (BRZ 1% suspension)

| SMILES | Solubility [1] [%] | toxicity to H9C2 cells [2] | toxicity to HepG2 cells [3] | viability at 96 h, 1 % [4] [%] | viability at 96 h, 2 % [4] [%] | toxicity to HCEC cells [5] | toxicity to HT-29 cells [6] | return to basal IOP values ([7]; 1% suspension) [h] | maximal IOP lowering [7, 8] | time of maximal IOP lowering effect post-administration [7, 8] [h] |
| --- | --- | --- | --- | --- | --- | --- | --- | --- | --- | --- |
| CC(=O)Nc1nnc(S(N)(=O)=O)s1 [AAZ, acetazolamide] | 0.21 | did not display any appreciable toxicity | did not display any appreciable toxicity | 80 | 10 | did not display any appreciable toxicity | did not display any appreciable toxicity | – | – | – |
| CCN[C@H]1CN(CCCOC)S(=O)(=O)c2sc(S(N)(=O)=O)cc21 [BRZ, brinzolamide] | 0.05 | did not display any appreciable toxicity | did not display any appreciable toxicity | 40 | – | did not display any appreciable toxicity | did not display any appreciable toxicity | 3 | around 5 mm Hg | 1 |
| CCN[C@H]1C[C@H](C)S(=O)(=O)c2sc(S(N)(=O)=O)cc21 [DZA, dorzolamide] | 0.67 | – | – | – | – | – | – | – | – | – |
